Results: ChEMBL document CHEMBL5506003, “Design and biological evaluation of dual tubulin/HDAC inhibitors based on millepachine for treatment of prostate cancer” (Eur J Med Chem, 2024)

How the values were obtained:
MDA-MB-231 = assay: Cytotoxicity against human MDA-MB-231 cells incubated for 72 hrs by MTT assay; format: functional, cell-based; details: MDA-MB-231, 72 h
PC-3 [1] = assay: Cytotoxicity against human PC-3 cells incubated for 72 hrs by MTT assay; details: PC-3, 72 h
A549 = assay: Cytotoxicity against human A549 cells incubated for 72 hrs by MTT assay; details: A549, 72 h
MCF7 = assay: Cytotoxicity against human MCF7 cells incubated for 72 hrs by MTT assay; details: MCF7, 72 h
U-251 = assay: Cytotoxicity against human U-251 cells incubated for 72 hrs by MTT assay; details: U-251, 72 h
Histone deacetylase 7 = biological target: T1, Histone deacetylase 7 (Homo sapiens, UniProt Q8WUI4); assay: Inhibition of HDAC7 in human HeLa nuclear extracts incubated for 30 mins by fluorescence based assay; format: cell-free
T1 sequence (Q8WUI4 whole entry): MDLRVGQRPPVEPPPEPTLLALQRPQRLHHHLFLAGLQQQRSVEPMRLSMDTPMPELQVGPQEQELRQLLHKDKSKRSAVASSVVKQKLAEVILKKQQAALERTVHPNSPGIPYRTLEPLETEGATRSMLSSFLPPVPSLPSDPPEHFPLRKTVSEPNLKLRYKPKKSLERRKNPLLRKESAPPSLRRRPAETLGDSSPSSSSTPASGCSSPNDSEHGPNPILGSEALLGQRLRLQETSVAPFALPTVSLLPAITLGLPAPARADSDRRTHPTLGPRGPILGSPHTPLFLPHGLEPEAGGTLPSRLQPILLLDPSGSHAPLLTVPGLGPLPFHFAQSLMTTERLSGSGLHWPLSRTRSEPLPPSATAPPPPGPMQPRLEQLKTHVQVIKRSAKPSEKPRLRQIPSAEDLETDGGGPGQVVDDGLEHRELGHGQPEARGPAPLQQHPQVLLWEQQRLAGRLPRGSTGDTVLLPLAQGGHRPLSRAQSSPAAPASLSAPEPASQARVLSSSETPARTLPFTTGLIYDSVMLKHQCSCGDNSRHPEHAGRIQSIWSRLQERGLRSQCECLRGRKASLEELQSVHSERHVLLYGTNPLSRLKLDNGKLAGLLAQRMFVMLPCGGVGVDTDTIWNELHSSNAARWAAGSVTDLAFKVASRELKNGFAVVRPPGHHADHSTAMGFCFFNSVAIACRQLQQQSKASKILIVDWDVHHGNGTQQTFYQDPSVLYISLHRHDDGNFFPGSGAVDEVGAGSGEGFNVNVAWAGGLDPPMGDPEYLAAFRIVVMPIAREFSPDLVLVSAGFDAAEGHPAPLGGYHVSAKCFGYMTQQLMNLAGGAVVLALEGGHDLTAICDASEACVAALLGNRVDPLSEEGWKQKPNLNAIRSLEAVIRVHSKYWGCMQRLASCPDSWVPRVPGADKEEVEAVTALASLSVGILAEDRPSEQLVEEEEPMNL

Histone deacetylase 1 = Histone deacetylase 1 (Homo sapiens, UniProt Q13547); assay: Inhibition of HDAC1 in human HeLa nuclear extracts incubated for 30 mins by fluorescence based assay; format: cell-free
Chain of Histone deacetylase 1 (Q13547 whole entry): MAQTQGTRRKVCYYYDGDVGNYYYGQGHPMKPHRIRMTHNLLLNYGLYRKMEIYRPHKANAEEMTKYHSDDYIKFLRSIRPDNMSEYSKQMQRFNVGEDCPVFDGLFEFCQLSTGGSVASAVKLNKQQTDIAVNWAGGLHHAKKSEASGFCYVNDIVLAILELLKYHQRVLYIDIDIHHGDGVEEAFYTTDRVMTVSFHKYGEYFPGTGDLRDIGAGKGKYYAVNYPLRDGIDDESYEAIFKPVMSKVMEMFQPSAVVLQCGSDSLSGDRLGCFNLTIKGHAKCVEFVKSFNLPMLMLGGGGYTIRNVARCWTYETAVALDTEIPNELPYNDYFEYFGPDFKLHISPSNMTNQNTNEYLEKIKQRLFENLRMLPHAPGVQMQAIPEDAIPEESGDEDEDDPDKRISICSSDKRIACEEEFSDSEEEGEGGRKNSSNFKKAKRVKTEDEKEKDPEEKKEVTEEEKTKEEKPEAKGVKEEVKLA

[2] = biological target: T2, Protein deacetylase HDAC6 (Homo sapiens, UniProt Q9UBN7); assay: Inhibition of HDAC6 in human HeLa nuclear extracts incubated for 30 mins by fluorescence based assay; format: cell-free
T2 sequence (Q9UBN7 whole entry): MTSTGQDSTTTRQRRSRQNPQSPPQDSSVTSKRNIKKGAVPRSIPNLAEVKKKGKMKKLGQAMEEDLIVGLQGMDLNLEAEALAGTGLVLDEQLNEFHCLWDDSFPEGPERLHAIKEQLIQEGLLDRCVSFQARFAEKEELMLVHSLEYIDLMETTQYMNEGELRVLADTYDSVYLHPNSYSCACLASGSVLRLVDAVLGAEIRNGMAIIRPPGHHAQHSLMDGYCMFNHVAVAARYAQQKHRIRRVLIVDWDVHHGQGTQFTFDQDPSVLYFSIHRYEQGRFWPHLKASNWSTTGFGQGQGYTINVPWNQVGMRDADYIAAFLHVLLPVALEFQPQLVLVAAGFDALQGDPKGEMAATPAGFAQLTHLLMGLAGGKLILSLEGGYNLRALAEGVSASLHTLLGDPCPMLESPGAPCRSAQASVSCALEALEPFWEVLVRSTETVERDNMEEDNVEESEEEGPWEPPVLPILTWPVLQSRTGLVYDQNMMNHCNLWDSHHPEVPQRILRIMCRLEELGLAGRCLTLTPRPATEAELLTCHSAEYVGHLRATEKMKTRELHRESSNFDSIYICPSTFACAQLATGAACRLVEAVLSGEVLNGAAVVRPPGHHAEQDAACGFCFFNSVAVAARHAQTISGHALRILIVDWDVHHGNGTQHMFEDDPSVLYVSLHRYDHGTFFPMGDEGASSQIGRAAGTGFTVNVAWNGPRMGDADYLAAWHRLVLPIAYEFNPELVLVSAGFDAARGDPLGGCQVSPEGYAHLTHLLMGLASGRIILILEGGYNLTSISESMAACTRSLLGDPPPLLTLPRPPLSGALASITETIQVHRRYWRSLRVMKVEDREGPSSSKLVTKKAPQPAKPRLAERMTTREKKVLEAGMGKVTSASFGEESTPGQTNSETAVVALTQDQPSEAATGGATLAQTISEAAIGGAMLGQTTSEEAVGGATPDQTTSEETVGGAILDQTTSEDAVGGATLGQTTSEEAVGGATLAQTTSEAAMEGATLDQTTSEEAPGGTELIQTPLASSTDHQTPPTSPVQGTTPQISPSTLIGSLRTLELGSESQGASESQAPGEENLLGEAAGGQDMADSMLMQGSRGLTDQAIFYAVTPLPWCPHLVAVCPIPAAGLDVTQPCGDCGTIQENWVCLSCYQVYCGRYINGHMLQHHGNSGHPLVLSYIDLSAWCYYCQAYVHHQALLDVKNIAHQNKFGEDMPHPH

Histone deacetylase 2 = Histone deacetylase 2 (Homo sapiens, UniProt Q92769); assay: Inhibition of HDAC2 in human HeLa nuclear extracts incubated for 30 mins by fluorescence based assay; format: cell-based
Chain of Histone deacetylase 2 (Q92769 whole entry): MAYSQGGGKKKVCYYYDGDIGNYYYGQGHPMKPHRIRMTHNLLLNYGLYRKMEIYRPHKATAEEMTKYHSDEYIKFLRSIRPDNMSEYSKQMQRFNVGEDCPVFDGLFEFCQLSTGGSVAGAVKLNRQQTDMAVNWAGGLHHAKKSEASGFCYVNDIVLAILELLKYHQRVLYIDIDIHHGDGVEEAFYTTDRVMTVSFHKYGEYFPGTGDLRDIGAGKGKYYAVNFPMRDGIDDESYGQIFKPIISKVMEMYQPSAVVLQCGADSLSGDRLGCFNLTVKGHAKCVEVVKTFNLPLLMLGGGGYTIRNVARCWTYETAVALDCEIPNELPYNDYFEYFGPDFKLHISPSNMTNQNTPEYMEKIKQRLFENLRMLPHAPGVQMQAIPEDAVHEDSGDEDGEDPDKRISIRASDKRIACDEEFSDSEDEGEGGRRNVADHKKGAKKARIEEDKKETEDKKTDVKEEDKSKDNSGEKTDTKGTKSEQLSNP

[3] = Toxicity in BALB/c nude mouse xenografted with human PC-3 cells assessed as mortality at 5 mg/kg, iv administered every 2 days and measured after 3 weeks; format: organism-based; details: in vivo, 504 h
[4] = Toxicity in BALB/c nude mouse xenografted with human PC-3 cells assessed as body weight loss at 5 mg/kg, iv administered every 2 days and measured after 3 weeks; format: organism-based; details: in vivo, 504 h
PC-3 [5] = assay: Antitumor activity against human PC-3 cells xenografted in BALB/c nude mouse assessed as tumor growth inhibition at 5 mg/kg, iv administered every 2 days and measured after 3 weeks; format: functional; details: PC-3, 504 h, read-out: TGI

IC50 (Histone deacetylase 7) [µM] | IC50 (Histone deacetylase 1) [µM] | IC50 [2] [µM] | IC50 (Histone deacetylase 2) [µM] | SMILES | IC50 (MDA-MB-231) [µM] | IC50 (PC-3 [1]) [µM] | IC50 (A549) [µM] | IC50 (MCF7) [µM] | IC50 (U-251) [µM] | Activity [3] | Activity [4] | inhibition in vivo at 5 mg/kg (PC-3 [5]) [%]
 |  |  |  | COc1ccc(/C=C/C(=O)c2ccc(OC)c3c2OC(C)(C)C=C3)cc1NCCCCCCC(=O)Nc1ccccc1N | > 10 | 6.61 | > 10 | > 10 | > 10 |  |  | 
 |  |  |  | COc1ccc(/C=C/C(=O)c2ccc(OC)c3c2OC(C)(C)C=C3)cc1OCCCC(=O)Nc1ccccc1N | > 10 | > 10 | > 10 | 9.47 | 7.52 |  |  | 
 |  |  |  | COc1ccc(/C=C/C(=O)c2ccc(OC)c3c2OC(C)(C)C=C3)cc1NCCCCCC(=O)NO | > 10 | > 10 | > 10 | > 10 | > 10 |  |  | 
 |  |  |  | COc1ccc(/C=C/C(=O)c2ccc(OC)c3c2OC(C)(C)C=C3)cc1OCCCCC(=O)NO | 4.69 | 4.84 | 7.13 | > 10 | > 10 |  |  | 
 |  |  |  | COc1ccc(/C=C/C(=O)c2ccc(OC)c3c2OC(C)(C)C=C3)cc1OCCCCCCC(=O)NO | > 10 | > 10 | > 10 | 10 | > 10 |  |  | 
 |  |  |  | COc1ccc(/C=C/C(=O)c2ccc(OC)c3c2OC(C)(C)C=C3)cc1OCCCCCCC(=O)Nc1ccccc1N | 3.89 | > 10 | > 10 | > 10 | > 10 |  |  | 
 |  |  |  | COc1ccc(/C=C/C(=O)c2ccc(OC)c3c2OC(C)(C)C=C3)cc1OCC(=O)Nc1ccccc1N | > 10 | > 10 | > 10 | 8.72 | 7.6 |  |  | 
 |  |  |  | COc1ccc(/C=C/C(=O)c2ccc(Cl)c3c2OC(C)(C)C=C3)cc1NCC(=O)NO | 0.5 | 0.052 | 1.67 | 0.48 | 0.25 |  |  | 
 |  |  |  | COc1ccc(/C=C/C(=O)c2ccc(OC)c3c2OC(C)(C)C=C3)cc1OCCCCC(=O)Nc1ccccc1N | > 10 | 6.44 | > 10 | 8.49 | > 10 |  |  | 
 |  |  |  | COc1ccc(/C=C/C(=O)c2ccc(OC)c3c2OC(C)(C)C=C3)cc1OCCCC(=O)NO | 8.71 | 6.15 | 5.53 | 5.68 | 3.68 |  |  | 
8.3 | 0.87 | 3.35 | 1.43 | COc1ccc(/C=C/C(=O)c2ccc(Br)c3c2OC(C)(C)C=C3)cc1NCC(=O)NO | 0.16 | 0.032 | 0.8 | 0.19 | 0.14 |  |  | 
 |  |  |  | CC(=O)O[C@H]1C(=O)[C@@]2(C)[C@H]([C@H](OC(=O)c3ccccc3)[C@]3(O)C[C@H](OC(=O)[C@H](O)[C@@H](NC(=O)c4ccccc4)c4ccccc4)C(C)=C1C3(C)C)[C@]1(OC(C)=O)CO[C@@H]1C[C@@H]2O [PACLITAXEL] |  |  |  |  |  | Toxic | Toxic | 91.3
 |  |  |  | COc1ccc(/C=C/C(=O)c2ccc(OC)c3c2OC(C)(C)C=C3)cc1NCCCCCC(=O)Nc1ccccc1N | > 10 | 5.16 | > 10 | > 10 | > 10 |  |  | 
 |  |  |  | COc1ccc(/C=C/C(=O)c2ccc(OC)c3c2OC(C)(C)C=C3)cc1NCC(=O)Nc1ccccc1N | 4.97 | 3.1 | 9.78 | 4.33 | 4.19 |  |  | 
5.42 | 0.58 | 1.21 | 0.83 | COc1ccc(/C=C/C(=O)c2ccc(Br)c3c2OC(C)(C)C=C3)cc1OCC(=O)NO | 0.47 | 0.72 | 1.31 | 1.82 | 0.49 |  |  | 
 |  |  |  | COc1ccc(/C=C/C(=O)c2ccc(OC)c3c2OC(C)(C)C=C3)cc1OCCCCCC(=O)NO | > 10 | 5.74 | 6.08 | 6.53 | > 10 |  |  | 
 |  |  |  | COc1ccc(/C=C/C(=O)c2ccc(Br)c3c2OC(C)(C)C=C3)cc1OCC(=O)Nc1ccccc1N | 4.75 | 3.75 | 8.2 | 6.11 | 6.68 |  |  | 
 |  |  |  | COc1ccc(/C=C/C(=O)c2ccc(Br)c3c2OC(C)(C)C=C3)cc1NCC(=O)Nc1ccccc1N | 4.05 | 1.23 | > 10 | 4.06 | 3.66 |  |  | 
 |  |  |  | COc1ccc(/C=C/C(=O)c2ccc(OC)c3c2OC(C)(C)C=C3)cc1OCCCCCC(=O)Nc1ccccc1N | > 10 | 5.86 | > 10 | > 10 | > 10 |  |  | 
 |  |  |  | COc1ccc(/C=C/C(=O)c2ccc(OC)c3c2OC(C)(C)C=C3)cc1NCCCCCCC(=O)NO | > 10 | 7.23 | > 10 | > 10 | > 10 |  |  | 
 |  |  |  | COc1ccc(/C=C/C(=O)c2ccc(Cl)c3c2OC(C)(C)C=C3)cc1NCC(=O)Nc1ccccc1N | 3 | 2.65 | > 10 | 4.77 | 4.72 |  |  | 
 |  |  |  | COc1ccc(/C=C/C(=O)c2ccc(OC)c3c2OC(C)(C)C=C3)cc1OCC(=O)NO | 1.71 | 0.23 | 2.93 | 0.59 | 0.48 |  |  | 
 |  |  |  | COc1ccc(/C=C/C(=O)c2ccc(Cl)c3c2OC(C)(C)C=C3)cc1OCC(=O)NO | 0.5 | 0.22 | 2.56 | 1.45 | 1.76 |  |  | 
 |  |  |  | COc1ccc(/C=C/C(=O)c2ccc(Cl)c3c2OC(C)(C)C=C3)cc1OCC(=O)Nc1ccccc1N | 3.45 | 4.69 | 7.72 | 9.14 | 9.23 |  |  | 
 |  |  |  | COc1ccc(/C=C/C(=O)c2ccc(OC)c3c2OC(C)(C)C=C3)cc1 [MILLEPACHINE] | 2.47 | 1.13 | > 10 | 4.37 | 3.72 |  |  | 
